What was measured:
Test in all cases: cells
Type in all cases: functional, cell-based, Homo sapiens
Huh-7 = test system: Huh-7;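 also: HuH-7 cell growth inhibition, read out with a cell viability assay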
Description: SANGER: Inhibition of human HuH-7 cell growth in a cell viability assay.

HCC1599 = test system: HCC1599;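 also: growth inhibition of HCC1599 cells, read out in a cell viability assay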
Description: SANGER: Inhibition of human HCC1599 cell growth in a cell viability assay.

TYK-nu = test system: TYK-nu;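 also: growth inhibition of human TYK-nu cells, read out by a cell viability assay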
Description: SANGER: Inhibition of human TYK-nu cell growth in a cell viability assay.

FTC-133 = test system: FTC-133
SK-MES-1 = test system: SK-MES-1;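 also: growth inhibition of human SK-MES-1 cells, read out with a cell viability assay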
Description: SANGER: Inhibition of human SK-MES-1 cell growth in a cell viability assay.

SAOS-2 = test system: SAOS-2;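 also: growth inhibition of human Saos-2 cells determined by a cell viability assay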
Description: SANGER: Inhibition of human Saos-2 cell growth in a cell viability assay.

LCLC-97TM1 = test system: LCLC-97TM1;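 also: cell viability assay measuring growth inhibition of human LCLC-97TM1 cells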
Description: SANGER: Inhibition of human LCLC-97TM1 cell growth in a cell viability assay.

MDA-MB-415 = test system: MDA-MB-415
NCI-H2196 = test system: NCI-H2196;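 also: cell viability assay used as the readout of growth inhibition in NCI-H2196 cells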
Description: SANGER: Inhibition of human NCI-H2196 cell growth in a cell viability assay.

NCI-H1755 = test system: NCI-H1755;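 also: cell viability readout used to measure growth inhibition of NCI-H1755 cells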
Description: SANGER: Inhibition of human NCI-H1755 cell growth in a cell viability assay.

NCI-H1573 = test system: NCI-H1573;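 also: growth inhibition of NCI-H1573 cells, read out with a cell viability assay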
Description: SANGER: Inhibition of human NCI-H1573 cell growth in a cell viability assay.

MDA-MB-231 = test system: MDA-MB-231
Description: SANGER: Inhibition of human MDA-MB-231 cell growth in a cell viability assay.

KU-19-19 = test system: KU-19-19
Description: SANGER: Inhibition of human KU-19-19 cell growth in a cell viability assay.

NCI-H2030 = test system: NCI-H2030;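 also: growth inhibition of human NCI-H2030 cells, read out by a cell viability assay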
Description: SANGER: Inhibition of human NCI-H2030 cell growth in a cell viability assay.

A2058 = test system: A2058;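 also: reduction of A2058 cell growth, read out with a viability assay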
Description: SANGER: Inhibition of human A2058 cell growth in a cell viability assay.

MFE-280 = test system: MFE-280;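 also: growth inhibition of MFE-280 cells, determined with a cell viability readout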
Description: SANGER: Inhibition of human MFE-280 cell growth in a cell viability assay.

OE33 = test system: OE33;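 also: growth inhibition of human OE33 cells, measured by a cell viability assay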
Description: SANGER: Inhibition of human OE33 cell growth in a cell viability assay.

RPMI-6666 = test system: RPMI-6666
Description: SANGER: Inhibition of human RPMI-6666 cell growth in a cell viability assay.

NCI-H524 = test system: NCI-H524;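 also: growth inhibition of human NCI-H524 cells, read out through a cell viability assay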
Description: SANGER: Inhibition of human NCI-H524 cell growth in a cell viability assay.

NCI-H1993 = test system: NCI-H1993;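 also: growth inhibition of the cancer cell line, assessed with a cell viability assay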
Description: SANGER: Inhibition of human NCI-H1993 cell growth in a cell viability assay.

NALM-6 = test system: NALM-6;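 also: growth inhibition of NALM-6 cells, read out with a cell viability assay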
Description: SANGER: Inhibition of human NALM-6 cell growth in a cell viability assay.

BL-41 = test system: BL-41;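 also: growth inhibition of human BL-41 cells, read out with a cell viability assay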
Description: SANGER: Inhibition of human BL-41 cell growth in a cell viability assay.

HOP-92 = test system: HOP-92;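 also: cell viability readout, with IC50 reflecting inhibition of HOP-92 cell growth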
Description: SANGER: Inhibition of human HOP-92 cell growth in a cell viability assay.

BPH-1 = test system: BPH-1;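 also: cell viability assay measuring growth inhibition of human BPH-1 cells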
Description: SANGER: Inhibition of human BPH-1 cell growth in a cell viability assay.

COLO-741 = test system: COLO-741
Description: SANGER: Inhibition of human COLO-741 cell growth in a cell viability assay.

LC-1F = test system: LC-1F;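 also: growth inhibition of human LC-1F cells, read out with a cell viability assay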
Description: SANGER: Inhibition of human LC-1F cell growth in a cell viability assay.

CA46 = test system: CA46;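 also: growth inhibition of human CA46 cells, read out by a cell viability assay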
Description: SANGER: Inhibition of human CA46 cell growth in a cell viability assay.

WSU-NHL = test system: WSU-NHL;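 also: growth inhibition of human WSU-NHL cells, read out with a cell viability assay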
Description: SANGER: Inhibition of human WSU-NHL cell growth in a cell viability assay.

EGI-1 = test system: EGI-1;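 also: cell viability readout used to gauge growth inhibition of EGI-1 cells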
Description: SANGER: Inhibition of human EGI-1 cell growth in a cell viability assay.

KYSE-270 = test system: KYSE-270;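 also: cell growth inhibition measured with a viability assay in the human KYSE-270 line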
Description: SANGER: Inhibition of human KYSE-270 cell growth in a cell viability assay.

DOK = test system: DOK;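 also: cell viability assay read-out, values reflect inhibition of cell growth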
Description: SANGER: Inhibition of human DOK cell growth in a cell viability assay.

CaR-1 = test system: CaR-1;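 also: growth inhibition of human CaR-1 cancer cells, read out with a cell viability assay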
Description: SANGER: Inhibition of human CaR-1 cell growth in a cell viability assay.

BFTC-905 = test system: BFTC-905
Description: SANGER: Inhibition of human BFTC-905 cell growth in a cell viability assay.

COLO-679 = test system: COLO-679
Description: SANGER: Inhibition of human COLO-679 cell growth in a cell viability assay.

TE-15 = test system: TE-15;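 also: cell viability readout of growth inhibition in TE-15 cells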
Description: SANGER: Inhibition of human TE-15 cell growth in a cell viability assay.

KP-N-YN = test system: KP-N-YN;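 also: growth inhibition of KP-N-YN cells, read out with a cell viability assay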
Description: SANGER: Inhibition of human KP-N-YN cell growth in a cell viability assay.

DoTc2-4510 = test system: DoTc2-4510
8305C = test system: 8305C
Description: SANGER: Inhibition of human 8305C cell growth in a cell viability assay.

S-117 = test system: S-117
Description: SANGER: Inhibition of human S-117 cell growth in a cell viability assay.

NCI-H441 = test system: NCI-H441;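 also: growth inhibition of NCI-H441 cells, read out with a cell viability assay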
Description: SANGER: Inhibition of human NCI-H441 cell growth in a cell viability assay.

BT-20 = test system: BT-20;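 also: cell viability assay measuring suppression of growth in human BT-20 cells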
Description: SANGER: Inhibition of human BT-20 cell growth in a cell viability assay.

IST-SL2 = test system: IST-SL2;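 also: growth inhibition of human IST-SL2 cells, read out by a cell viability assay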
Description: SANGER: Inhibition of human IST-SL2 cell growth in a cell viability assay.

NCI-H1623 = test system: NCI-H1623;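 also: cell viability assay used as the read-out for growth inhibition of NCI-H1623 cells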
Description: SANGER: Inhibition of human NCI-H1623 cell growth in a cell viability assay.

SW13 = test system: SW13;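 also: IC50 is inhibition of SW13 cell growth, read out with a cell viability assay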
Description: SANGER: Inhibition of human SW13 cell growth in a cell viability assay.

OAW-42 = test system: OAW-42;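 also: growth inhibition of OAW-42 cells, read out with a cell viability assay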
Description: SANGER: Inhibition of human OAW-42 cell growth in a cell viability assay.

NCI-H2227 = test system: NCI-H2227;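 also: growth inhibition of the human cell line, read out with a cell viability assay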
Description: SANGER: Inhibition of human NCI-H2227 cell growth in a cell viability assay.

## Cc1cc([N+](=O)[O-])ccc1NS(=O)(=O)c1cc(Cl)ccc1Cl
Huh-7; Homo sapiens, Huh-7
  IC50: 1570 nM
HCC1599; Homo sapiens, HCC1599
  IC50: 16700 nM
TYK-nu; Homo sapiens, TYK-nu
  IC50: 2010 nM
FTC-133; Homo sapiens, FTC-133
  IC50: 6740 nM
SK-MES-1; Homo sapiens, SK-MES-1
  IC50: 2070 nM
SAOS-2; Homo sapiens, SAOS-2
  IC50: 6940 nM
LCLC-97TM1; Homo sapiens, LCLC-97TM1
  IC50: 3180 nM
MDA-MB-415; Homo sapiens, MDA-MB-415
  IC50: 4700 nM
NCI-H2196; Homo sapiens, NCI-H2196
  IC50: > 32000 nM
NCI-H1755; Homo sapiens, NCI-H1755
  IC50: 15800 nM
NCI-H1573; Homo sapiens, NCI-H1573
  IC50: > 32000 nM
MDA-MB-231; Homo sapiens, MDA-MB-231
  IC50: 14300 nM
KU-19-19; Homo sapiens, KU-19-19
  IC50: > 32000 nM
NCI-H2030; Homo sapiens, NCI-H2030
  IC50: 4430 nM
A2058; Homo sapiens, A2058
  IC50: 2030 nM
MFE-280; Homo sapiens, MFE-280
  IC50: 2770 nM
OE33; Homo sapiens, OE33
  IC50: 9490 nM
RPMI-6666; Homo sapiens, RPMI-6666
  IC50: 20200 nM
NCI-H524; Homo sapiens, NCI-H524
  IC50: 12500 nM
NCI-H1993; Homo sapiens, NCI-H1993
  IC50: 17200 nM
NALM-6; Homo sapiens, NALM-6
  IC50: 6280 nM
BL-41; Homo sapiens, BL-41
  IC50: > 32000 nM
HOP-92; Homo sapiens, HOP-92
  IC50: 2810 nM
BPH-1; Homo sapiens, BPH-1
  IC50: 12200 nM
COLO-741; Homo sapiens, COLO-741
  IC50: 4490 nM
LC-1F; Homo sapiens, LC-1F
  IC50: > 32000 nM
CA46; Homo sapiens, CA46
  IC50: 7160 nM
WSU-NHL; Homo sapiens, WSU-NHL
  IC50: 11800 nM
EGI-1; Homo sapiens, EGI-1
  IC50: 24800 nM
KYSE-270; Homo sapiens, KYSE-270
  IC50: 3030 nM
DOK; Homo sapiens, DOK
  IC50: > 32000 nM
CaR-1; Homo sapiens, CaR-1
  IC50: > 32000 nM
BFTC-905; Homo sapiens, BFTC-905
  IC50: 3650 nM
COLO-679; Homo sapiens, COLO-679
  IC50: 2400 nM
TE-15; Homo sapiens, TE-15
  IC50: 2150 nM
KP-N-YN; Homo sapiens, KP-N-YN
  IC50: 10200 nM
DoTc2-4510; Homo sapiens, DoTc2-4510
  IC50: 1520 nM
8305C; Homo sapiens, 8305C
  IC50: 3990 nM
S-117; Homo sapiens, S-117
  IC50: < 125 nM
NCI-H441; Homo sapiens, NCI-H441
  IC50: 6750 nM
BT-20; Homo sapiens, BT-20
  IC50: 8510 nM
IST-SL2; Homo sapiens, IST-SL2
  IC50: 8240 nM
NCI-H1623; Homo sapiens, NCI-H1623
  IC50: > 32000 nM
SW13; Homo sapiens, SW13
  IC50: 1990 nM
OAW-42; Homo sapiens, OAW-42
  IC50: 2780 nM
NCI-H2227; Homo sapiens, NCI-H2227
  IC50: > 32000 nM

## COc1cccc2c1C(=O)c1c(O)c3c(c(O)c1C2=O)C[C@@](O)(C(=O)CO)C[C@@H]3O[C@H]1C[C@H](N)[C@H](O)[C@H](C)O1 [DOXORUBICIN]
Huh-7; Homo sapiens, Huh-7
  IC50: 258 nM
HCC1599; Homo sapiens, HCC1599
  IC50: 72.5 nM
TYK-nu; Homo sapiens, TYK-nu
  IC50: 663 nM
FTC-133; Homo sapiens, FTC-133
  IC50: 229 nM
SK-MES-1; Homo sapiens, SK-MES-1
  IC50: 31.5 nM
SAOS-2; Homo sapiens, SAOS-2
  IC50: 330 nM
LCLC-97TM1; Homo sapiens, LCLC-97TM1
  IC50: 11.8 nM
MDA-MB-415; Homo sapiens, MDA-MB-415
  IC50: > 1020 nM
NCI-H2196; Homo sapiens, NCI-H2196
  IC50: 229 nM
NCI-H1755; Homo sapiens, NCI-H1755
  IC50: 874 nM
NCI-H1573; Homo sapiens, NCI-H1573
  IC50: > 1020 nM
MDA-MB-231; Homo sapiens, MDA-MB-231
  IC50: > 1020 nM
KU-19-19; Homo sapiens, KU-19-19
  IC50: > 1020 nM
NCI-H2030; Homo sapiens, NCI-H2030
  IC50: 28.3 nM
A2058; Homo sapiens, A2058
  IC50: 17.7 nM
MFE-280; Homo sapiens, MFE-280
  IC50: > 1020 nM
OE33; Homo sapiens, OE33
  IC50: 426 nM
RPMI-6666; Homo sapiens, RPMI-6666
  IC50: 66 nM
NCI-H524; Homo sapiens, NCI-H524
  IC50: > 1020 nM
NCI-H1993; Homo sapiens, NCI-H1993
  IC50: 1000 nM
NALM-6; Homo sapiens, NALM-6
  IC50: 18.6 nM
BL-41; Homo sapiens, BL-41
  IC50: 122 nM
HOP-92; Homo sapiens, HOP-92
  IC50: 291 nM
BPH-1; Homo sapiens, BPH-1
  IC50: 22.1 nM
COLO-741; Homo sapiens, COLO-741
  IC50: 195 nM
LC-1F; Homo sapiens, LC-1F
  IC50: > 1020 nM
CA46; Homo sapiens, CA46
  IC50: 137 nM
WSU-NHL; Homo sapiens, WSU-NHL
  IC50: 155 nM
EGI-1; Homo sapiens, EGI-1
  IC50: 598 nM
KYSE-270; Homo sapiens, KYSE-270
  IC50: 7.21 nM
DOK; Homo sapiens, DOK
  IC50: 1020 nM
CaR-1; Homo sapiens, CaR-1
  IC50: > 1020 nM
BFTC-905; Homo sapiens, BFTC-905
  IC50: 16.2 nM
COLO-679; Homo sapiens, COLO-679
  IC50: 16 nM
TE-15; Homo sapiens, TE-15
  IC50: 24.1 nM
KP-N-YN; Homo sapiens, KP-N-YN
  IC50: > 1020 nM
DoTc2-4510; Homo sapiens, DoTc2-4510
  IC50: 36.2 nM
8305C; Homo sapiens, 8305C
  IC50: 63.1 nM
S-117; Homo sapiens, S-117
  IC50: > 1020 nM
NCI-H441; Homo sapiens, NCI-H441
  IC50: 28.4 nM
BT-20; Homo sapiens, BT-20
  IC50: > 1020 nM
IST-SL2; Homo sapiens, IST-SL2
  IC50: 73.8 nM
NCI-H1623; Homo sapiens, NCI-H1623
  IC50: 605 nM
SW13; Homo sapiens, SW13
  IC50: 115 nM
OAW-42; Homo sapiens, OAW-42
  IC50: 154 nM
NCI-H2227; Homo sapiens, NCI-H2227
  IC50: > 1020 nM

## BLEOMYCIN
Huh-7; huh-7
  IC50: 2430 nM
HCC1599; hcc1599
  IC50: 3370 nM
TYK-nu; tyk-nu
  IC50: 3030 nM
FTC-133; ftc-133
  IC50: 1290 nM
SK-MES-1; sk-mes-1
  IC50: 3070 nM
SAOS-2; saos-2
  IC50: 172 nM
LCLC-97TM1; lclc-97tm1
  IC50: 1500 nM
MDA-MB-415; mda-mb-415
  IC50: 67300 nM
NCI-H2196; nci-h2196
  IC50: 22800 nM
NCI-H1755; nci-h1755
  IC50: 26000 nM
NCI-H1573; nci-h1573
  IC50: 268000 nM
MDA-MB-231; mda-mb-231
  IC50: 273 nM
KU-19-19; ku-19-19
  IC50: 525000 nM
NCI-H2030; nci-h2030
  IC50: 5220 nM
A2058; a2058
  IC50: 808 nM
MFE-280; mfe-280
  IC50: 359000 nM
OE33; oe33
  IC50: 2750 nM
RPMI-6666; rpmi-6666
  IC50: 445 nM
NCI-H524; nci-h524
  IC50: 190000 nM
NCI-H1993; nci-h1993
  IC50: 646000 nM
NALM-6; nalm-6
  IC50: 420 nM
BL-41; bl-41
  IC50: 14200 nM
HOP-92; hop-92
  IC50: 9260 nM
BPH-1; bph-1
  IC50: 59.1 nM
COLO-741; colo-741
  IC50: 16400 nM
LC-1F; lc-1f
  IC50: 49400 nM
CA46; ca46
  IC50: 84800 nM
WSU-NHL; wsu-nhl
  IC50: 31600 nM
EGI-1; egi-1
  IC50: 772 nM
KYSE-270; kyse-270
  IC50: 717 nM
DOK; dok
  IC50: 322000 nM
CaR-1; car-1
  IC50: 4450 nM
BFTC-905; bftc-905
  IC50: 2320 nM
COLO-679; colo-679
  IC50: 2660 nM
TE-15; te-15
  IC50: 3220 nM
KP-N-YN; kp-n-yn
  IC50: 26300 nM
DoTc2-4510; dotc2-4510
  IC50: 378 nM
8305C; 8305c
  IC50: 804 nM
S-117; s-117
  IC50: 90200 nM
NCI-H441; nci-h441
  IC50: 9050 nM
BT-20; bt-20
  IC50: 2770 nM
IST-SL2; ist-sl2
  IC50: 0.173 nM
NCI-H1623; nci-h1623
  IC50: 39000 nM
SW13; sw13
  IC50: 81.6 nM
OAW-42; oaw-42
  IC50: 832 nM
NCI-H2227; nci-h2227
  IC50: 721000 nM
